As a reminder, the ΔTm is the shift of the melting midpoint relative to a reference.

The text below walks through data of PMC8698932 (2021).

Assay [1] relates to GG1 (DNA, G4) GGGCGGGCGCGAGGGAGGGT
The experiment in a line: CD melting, 261 nm. The conditions noted are these: 5 mM KCl; 10 mM KH2PO4 pH 7; 2 µM DNA, 8 µM compound.

The test system of assay [2] is DL40 (DNA, G4) GGTTTTGGCAGGGTTTTGGT
The experiment in a line: 1H NMR titration (imino and aromatic protons). The following applies: 150 mM NaCl; sodium phosphate pH 6.8, 25 °C; new imino signals, single conformation at R ≥ 1.0.

The subject of assay [3] is ckit21T12T21 (DNA, G4) CGGGCGGGCGCTAGGGAGGGT
The experiment in a line: 1H NMR titration (imino and aromatic protons). The conditions noted are these: 20 mM KCl; 5 mM KH2PO4 pH 6.9, 25 °C; stacks over external tetrads.

In assay [4] the test system is 22nt (DNA, i motif) CCCTAACCCTAACCCTAACCCT
The experiment in a line: fluorescence titration (alkaloid quenching). The conditions noted are these: 5 mM KCl; acetate 10 mM pH 5; overall constant of the 1:4 DNA:ligand model, not per site; non-specific binding possible.

The test system of assay [5] is GG1 (DNA, G4) GGGCGGGCGCGAGGGAGGGT
The experiment in a line: fluorescence titration (alkaloid quenching). The conditions noted are these: 5 mM KCl; phosphate 10 mM pH 7; overall constant of the 1:5 DNA:ligand model, not per site; non-specific binding possible.

For assay [6], the system named is nmyc01 (DNA, i motif) ACCCCCTGCATCTGCATGCCCCCTCCCACCCCCT
The experiment in a line: CD melting, 287 nm. The conditions noted are these: Na+ (0.2 M CH3COONa); acetate pH 5; 2 µM DNA, 8 µM compound.

Assay [7] has the same test system. The experiment in a line: fluorescence titration (alkaloid quenching). The following applies: 5 mM KCl; acetate 10 mM pH 5; overall constant of the 1:4 DNA:ligand model, not per site; non-specific binding possible.
Assay [8] relates to nmyc01m (DNA, i motif) ACCCCCTGCATCTTTTTGCCCCCTCCCACCCCCT
The experiment in a line: fluorescence titration (alkaloid quenching). The following applies: 5 mM KCl; acetate 10 mM pH 5; overall constant of the 1:5 DNA:ligand model, not per site; non-specific binding possible.

The test system of assay [9] is nmyc01 (DNA, i motif) ACCCCCTGCATCTGCATGCCCCCTCCCACCCCCT
The experiment in a line: 1H NMR titration (imino protons). The conditions noted are these: Na+ (sodium phosphate); pH 5.0, 25 °C; hairpin Watson-Crick signals disappear at R = 0.25.

Assay [10] relates to nmyc01m (DNA, i motif) ACCCCCTGCATCTTTTTGCCCCCTCCCACCCCCT
The experiment in a line: 1H NMR titration (imino protons). The following applies: Na+ (sodium phosphate); pH 5.0, 25 °C; no change in imino resonances.

Assay [11] has as its system DL40 (DNA, G4) GGTTTTGGCAGGGTTTTGGT
The experiment in a line: CD melting, 291 nm. The conditions noted are these: 5 mM KCl; 10 mM KH2PO4 pH 7; 2 µM DNA, 8 µM compound.

In assay [12] the test system is 22nt (DNA, i motif) CCCTAACCCTAACCCTAACCCT
The experiment in a line: CD melting, 287 nm. The following applies: Na+ (0.2 M CH3COONa); acetate pH 5; 2 µM DNA, 8 µM compound.

Assay [13] concerns nmyc01m (DNA, i motif) ACCCCCTGCATCTTTTTGCCCCCTCCCACCCCCT
The experiment in a line: CD melting, 287 nm. The following applies: Na+ (0.2 M CH3COONa); acetate pH 5; 2 µM DNA, 8 µM compound.

The test system of assay [14] is 22nt (DNA, i motif) CCCTAACCCTAACCCTAACCCT
The experiment in a line: 1H NMR titration (imino protons). The conditions noted are these: Na+ (sodium phosphate); pH 5.0, 25 °C; only small insignificant imino changes.

The test system of assay [15] is DL40 (DNA, G4) GGTTTTGGCAGGGTTTTGGT
The experiment in a line: fluorescence titration (alkaloid quenching). The conditions noted are these: 5 mM KCl; phosphate 10 mM pH 7; overall constant of the 1:4 DNA:ligand model, not per site; non-specific binding possible.

For `COc1ccc2c(c1O)C[N+]1(C)CCc3cc4c(cc3C1C2)OCO4` (stereo not drawn), the ΔTm in [1] is 1.7 °C; in [6] it was −0.3 °C; in assay [11], 5.2 °C; in assay [12] it was 0.7 °C; in assay [13], −0.6 °C. Besides, the binding result in [2] is “yes”; in assay [3], “yes”; in [9], “weak”; in assay [10] it was “no”; in assay [14] it was “no”. Moreover, the “Log Ka” value in assay [4] turned out to be 17.64 ± 0.12; in [5], 22.39 ± 0.03; in assay [7], 18.21 ± 0.17; in assay [8] it was 22.61 ± 0.08; in assay [15] it was 18.46 ± 0.05.
